Literature values in US20180228856A1, “Antibacterial combination of Basil oil and Taiwan red cypress oil for preventing drug-resistant S. aureus infections and the use thereof” (priority 2017, published 2018).
In brackets after ≈: the same amount, converted by molar mass.

Test system: VISA strain Z172
Conditions: strain characteristic of Z172

Row | SMILES | minimum inhibitory concentration (MIC) [µg/mL]
1 | CCCCCCCCCC(=O)N[C@@H](Cc1c[nH]c2ccccc12)C(=O)N[C@H](CC(N)=O)C(=O)N[C@@H](CC(=O)O)C(=O)N[C@@H]1C(=O)NCC(=O)N[C@@H](CCCN)C(=O)N[C@@H](CC(=O)O)C(=O)N[C@H](C)C(=O)N[C@@H](CC(=O)O)C(=O)NCC(=O)N[C@H](CO)C(=O)N[C@@H]([C@H](C)CC(=O)O)C(=O)N[C@@H](CC(=O)c2ccccc2N)C(=O)O[C@@H]1C [daptomycin] | > 4
2 | CN[C@H](CC(C)C)C(=O)N[C@H]1C(=O)N[C@@H](CC(N)=O)C(=O)N[C@H]2C(=O)N[C@H]3C(=O)N[C@H](C(=O)N[C@H](C(=O)O)c4cc(O)cc(O)c4-c4cc3ccc4O)[C@H](O)c3ccc(c(Cl)c3)Oc3cc2cc(c3O[C@@H]2O[C@H](CO)[C@@H](O)[C@H](O)[C@H]2O[C@H]2C[C@](C)(N)[C@H](O)[C@H](C)O2)Oc2ccc(cc2Cl)[C@H]1O [vancomycin] | 4 (≈ 2.76 µM)
